# Assay results published in patent publication US8088819B2, “Derivatives of substituted 3-phenyl-1-(phenylthienyl)propan-1-ones and of 3-phenyl-1-(phenylfuranyl) propan-1-ones, preparation and use” (priority 2006, dated 2012).
# Values joined by “and” are separate entries in the source; they are usually repeats but may differ in a detail not shown here. Equal values may be shown once. Read-outs that look alike come from different tables or passages of the source.
# Tests used:
# hPPARalpha = target: T1, hPPARalpha (Homo sapiens, UniProt Q07869); assay: PPAR activation: Gal4-hPPARα chimera luciferase transactivation in COS-7 cells, Method 2; assay type: cell-based; settings: COS-7, 24 h; for EC50: 1% Ultroser; for Emax: maximum percentage response relative to the reference phenofibric acid, read-out: hPPARalpha % max
# T1 construct: expressed in transfected cells; host or cells: COS-7 (monkey kidney fibroblasts)
# T1 sequence (Q07869 239-466 limits assumed): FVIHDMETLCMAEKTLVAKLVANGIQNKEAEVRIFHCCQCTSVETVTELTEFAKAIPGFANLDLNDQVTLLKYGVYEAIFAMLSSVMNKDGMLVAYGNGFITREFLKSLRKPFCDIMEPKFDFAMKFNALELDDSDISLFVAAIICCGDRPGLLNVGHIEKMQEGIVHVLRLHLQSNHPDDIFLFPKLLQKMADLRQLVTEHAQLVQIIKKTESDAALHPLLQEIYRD
# Protocol: (§1) The activation of the PPARs was evaluated in vitro on a line of monkey kidney fibroblasts (COS-7) by measuring the transcriptional activity of chimeras constituted of the DNA binding domain of the Gal4 transcription factor of yeast and the ligand binding domain of the various PPARs. The compounds were tested at doses between 10^−5 and […] on the chimeras Gal4-PPARα, γ or δ, and the corresponding EC50 values were determined.
# (§2) The principle, the cells and the plasmids used for example 5 were also employed in this example. Only the application of the transfection stage is slightly different. The details are presented below.
# (§3) The adherent COS-7 cells are transfected with 40 μg of DNA per 225 cm^2 dish, with a pGal4-PPAR/Gal4(RE)_TkpGL3 ratio of 1/10, in the presence of 10% fetal calf serum. The cells are then detached and seeded in the absence of serum in 384-well plates (2×10^4 cells/well) and incubated for 4 hours at 37° C. The compounds are then diluted in a 96-well plate and transferred to the 384-well plate. Activation with the test compounds is carried out for an additional 24 h at 37° C. in the presence of 1% of Ultroser™ lipid-free synthetic serum (Biosepra). These last 2 stages are automated using a Genesis Freedom 200™ station (Tecan). At the end of the experiment, the cells are lysed and the luciferase activity is determined using the Steady-Lite™ HTS (Perkin Elmer) following the supplier's recommendations.
# hPPARdelta = target: T2, hPPARdelta (Homo sapiens, UniProt Q03181); assay: PPAR activation: Gal4-hPPARδ chimera luciferase transactivation in COS-7 cells, Method 2; assay type: cell-based; settings: COS-7, 24 h; for EC50: 1% Ultroser; for Emax: maximum percentage response relative to the reference GW501516, read-out: hPPARdelta % max
# T2 construct: expressed in transfected cells; host or cells: COS-7 (monkey kidney fibroblasts)
# T2 sequence (Q03181 211-439 limits assumed): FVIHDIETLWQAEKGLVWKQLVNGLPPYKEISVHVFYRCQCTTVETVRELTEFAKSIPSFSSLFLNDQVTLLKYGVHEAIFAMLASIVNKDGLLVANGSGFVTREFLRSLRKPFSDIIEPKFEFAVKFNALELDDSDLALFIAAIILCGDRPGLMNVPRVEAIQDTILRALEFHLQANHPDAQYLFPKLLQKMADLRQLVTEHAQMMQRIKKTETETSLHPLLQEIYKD
# Protocol: as §1, §2, §3
# hPPARgamma = target: T3, hPPARgamma (Homo sapiens, UniProt P37231); assay: PPAR activation: Gal4-hPPARγ chimera luciferase transactivation in COS-7 cells, Method 2; assay type: cell-based; settings: COS-7, 24 h; for EC50: 1% Ultroser
# T3 construct: expressed in transfected cells; host or cells: COS-7 (monkey kidney fibroblasts)
# T3 sequence (P37231 238-503 limits assumed): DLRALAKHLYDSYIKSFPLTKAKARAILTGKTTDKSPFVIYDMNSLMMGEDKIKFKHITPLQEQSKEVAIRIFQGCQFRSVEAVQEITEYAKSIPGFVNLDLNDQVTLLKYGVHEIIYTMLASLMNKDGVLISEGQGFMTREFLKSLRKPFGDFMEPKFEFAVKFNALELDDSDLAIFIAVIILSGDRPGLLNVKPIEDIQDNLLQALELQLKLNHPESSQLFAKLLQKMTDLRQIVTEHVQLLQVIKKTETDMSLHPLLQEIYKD
# Protocol: The activation of the PPARs was evaluated in vitro on a line of monkey kidney fibroblasts (COS-7) by measuring the transcriptional activity of chimeras constituted of the DNA binding domain of the Gal4 transcription factor of yeast and the ligand binding domain of the various PPARs.
# Only the application of the transfection stage is slightly different. The details are presented below.
# as §3
# [1] = test system: target genes of PPARδ in murine myocytes (C2C12); assay: Expression of target genes of PPARδ (PDK4, CPT1b, UCP2, UCP3) in murine myocytes, quantitative RT-PCR; assay type: cell-based; settings: murine myocytes in vitro
# Source text: It is established that regulation of the expression of these genes is directly controlled by PPARδ in this cell type. The more the expression of the genes is increased, the greater the stimulating action of the compound according to the invention on metabolism in the muscle cells.
# Cells from the murine cell line C2C12 (obtained from ECACC) are cultivated in DMEM medium (Gibco; 41965-039) with addition of 1% L-glutamine (Gibco; 25030), 1% of penicillin/streptomycin (VWR; BWSTL0022/100) and 10% decomplemented fetal calf serum (FCS. Gibco; 10270-106).
# The cells are seeded on 24-well plates at a density of 50·10^3 cells/well. At confluence, the medium is replaced with a differentiating medium (basal medium with addition of 2% of horse serum (Gibco; 26050-088)), then incubated at 37° C. and 5% CO2 for 4 days in order to differentiate them to myocytes.
# After 5 days of differentiation, the cells are put in a deprivation medium (basal medium without serum) for 6 hours. The cells are then treated with the compounds according to the invention in the deprivation medium. Compounds 2, 4, 7, 11, 39, 40, 46, 49 and 72 were in dose effect, corresponding to 1×, 10× and 100× their EC50 PPARδ. The compounds according to the invention were dissolved in dimethylsulfoxide (DMSO, Sigma; D5879). The cells were treated for 24 h at 37° C., 5% CO2. The effect of the compounds according to the invention was compared with the effect of DMSO alone.
# After treatment, the total RNA is extracted from the cells using the NucleoSpine® 96 RNA kit (Macherey Nagel, Hoerdt, France) following the manufacturer's instructions.
# 1 μg of total RNA (quantified based on the UV spectrophotometer reading) was then reverse-transcribed to complementary DNA by reaction for 1 hour at 37° C. in a total volume of 30 μl containing buffer 1× (Invitrogen), 1.5 mM of DTT, 0.18 mM of dNTPs (Promega), 200 ng of pdN6 (Amersham), 30 U of RNase inhibitor (Promega) and 1 μl of MMLV-RT (Invitrogen).
# The quantitative PCR experiments were carried out using the MyiQ Single-Color Real-Time PCR Detection System (Biorad, Marnes-la-Coquette, France) and were performed using the iQ SYBR Green Supermix kit following the supplier's recommendations, in 96-well plates, on 5 μl of diluted reverse-transcription reaction mixtures with a hybridization temperature of 60° C. Primer pairs specific to the PDK4, CPT1b, UCP2 and UCP3 genes under investigation were used:
# The amount of fluorescence emitted is directly proportional to the amount of complementary DNA present at the start of the reaction and amplified during PCR. For each target investigated, a range is produced by successive dilutions of a pool constituted of a few microliters of various reverse-transcription reaction mixtures. The relative expression levels of each target are thus determined using the efficacy curves obtained with the points in the range.
# The levels of expression of the genes of interest were then normalized relative to the level of expression of the reference gene 36B4 (whose specific primers are: sense primer: 5′-[…]-3′ (SEQ ID No. 19) and antisense primer: 5′-[…]-3′ (SEQ ID No. 20)). The induction factor, i.e. the ratio of the relative signal (induced by the compound according to the invention) to the mean of the relative values of the control group, was then calculated. The higher this factor, the greater the activating character of the compounds according to the invention with respect to gene expression. The final result is represented as the mean of the induction values in each experimental group.
# [2] = maximum percentage response relative to the reference rosiglitazone, Method 2, read-out: hPPARgamma % max
# [3] = Method 2, read-out: hPPARgamma EC50
EC50 (hPPARalpha),Emax (hPPARalpha) [%],EC50 (hPPARdelta),Emax (hPPARdelta) [%],melting point [°C],Emax (hPPARgamma; [2]) [%],EC50 (hPPARgamma; [3]) [µM],"Emax (hPPARgamma; read-out: hPPARgamma % max, maximum percentage response relative to the reference rosiglitazone, Method 2) [%]","EC50 (hPPARgamma; hPPARgamma EC50, Method 2)",Structure (SMILES),expression of genes involved in carbohydrate and lipid metabolism and in thermoregulation [1]
2.8 µM,25,4.71 µM,34,88 to 90,2,,,,"CC(C)OC(CCc1ccc(OC(C)(C)C(=O)O)c(Cl)c1Cl)c1ccc(-c2ccc(C(F)(F)F)cc2)s1 (centres unmarked) [Compound 55, 2-(2,3-dichloro-4-(3-isopropoxy-3-(5-(4-(trifluoromethyl)-phenyl)thien-2-yl)propyl)phenoxy)-2-methylpropanoic acid]",
4.21 µM,46,0.18 µM,97,,44,7.91,,,"CC(C)(Oc1ccc(CCC(OCc2ccccc2)c2ccc(-c3ccc(C(F)(F)F)cc3)s2)c(F)c1F)C(=O)O (centres unmarked) [Compound 63, 2-(4-(3-(benzyloxy)-3-(5-(4-(trifluoromethyl)phenyl)thien-2-yl)-propyl)-2,3-difluorophenoxy)-2-methylpropanoic acid]",stimulating effects
0.01 µM,45,0.36 µM,75,154 to 155,37,4.82,,,"CC(C)(Oc1ccc(CCC(=O)c2ccc(-c3ccc(C(F)(F)F)cc3)s2)cc1)C(=O)O [Compound 67, 2-(4-(3-oxo-3-(5-(4-(trifluoromethyl)phenyl)thien-2-yl)propyl)-phenoxy)-2-methylpropanoic acid]",
0.15 µM,43,0.07 µM,107,171 to 172,62,0.86,,,"CSc1ccc(-c2ccc(C(=O)CCc3ccc(OC(C)(C)C(=O)O)c(Cl)c3Cl)s2)cc1 [Compound 54, 2-(2,3-dichloro-4-(3-(5-(4-(methylthio)phenyl)thien-2-yl)-3-oxo-propyl)phenoxy)-2-methylpropanoic acid]",
1 µM,44,0.35 µM,88,179 to 180,39,1.52,,,"CC(C)(Oc1ccc(CCC(=O)c2ccc(-c3ccccc3)s2)c(Cl)c1Cl)C(=O)O [Compound 57, 2-(2,3-dichloro-4-(3-oxo-3-(5-phenylthien-2-yl)propyl)phenoxy)-2-methylpropanoic acid]",
1.68 µM,55,7.45 µM,75,170 to 171,27,36.5,,,"O=C(O)COc1ccc(CCC(=O)c2ccc(-c3ccc(C(F)(F)F)cc3)s2)cc1F [Compound 25, 2-(2-fluoro-4-(3-oxo-3-(5-(4-(trifluoromethyl)phenyl)thien-2-yl)-propyl)phenoxy)acetic acid]",
,47,0.03 µM,107,130 to 131,57,0.23,,,"Cc1cc(CCC(=O)c2ccc(-c3ccc(C(F)(F)F)cc3)s2)ccc1OC(C)(C)C(=O)O [Compound 59, 2-methyl-2-(2-methyl-4-(3-oxo-3-(5-(4-(trifluoromethyl)phenyl)-thien-2-yl)propyl)phenoxy)propanoic acid]",
0.26 µM,38,0.05 µM,78,68 to 69,32,0.27,,,"CON=C(CCc1ccc(OC(C)(C)C(=O)O)c(Cl)c1Cl)c1ccc(-c2ccc(C(F)(F)F)cc2)s1 (mixture of isomers) [Compound 50, 2-(2,3-dichloro-4-(3-(methoxyimino)-3-(5-(4-(trifluoromethyl)-phenyl)thien-2-yl)propyl)phenoxy)-2-methylpropanoic acid]",
0.21 µM,53,0.05 µM,104,155 to 157,57,1.02,,,"CC(C)(Oc1ccc(CCC(=O)c2ccc(-c3ccc(Br)cc3)s2)c(Cl)c1Cl)C(=O)O [Compound 52, 2-(4-(3-(5-(4-bromophenyl)thien-2-yl)-3-oxopropyl)-2,3-dichloro-phenoxy)-2-methylpropanoic acid]",
0.2 µM and 0.32 µM,44,0.014 µM and 0.009 µM,89,85,,,37,1.84 µM and 0.81 µM,"CC(C)(Oc1ccc(CCC(=O)c2ccc(-c3ccc(C(F)(F)F)cc3)o2)c(Cl)c1Cl)C(=O)O [Compound 38, 2-(2,3-dichloro-4-(3-oxo-3-(5-(4-(trifluoromethyl)phenyl)fur-2-yl)-propyl)phenoxy)-2-methylpropanoic acid]",
